Measured values: US20080274213A1, “Drug for Ameliorating Male Climacteric Disorders” (WAKUNAGA PHARMACEUTICAL CO., LTD., priority 2004, published 2008)

System: restraint stress-loaded ddY male mice
Assay: Test on inhibition of reduction in blood testosterone concentration (restraint stress-loaded mice)
Type: in vivo
Settings: tested likewise, dose of the components not given
Protocol: The Codonopsis lanceolata extract obtained in Example 1 was used to investigate inhibitory effect on reduction in blood testosterone concentration caused by aging and stress according to the following procedures: seven-month-old ddY male mice (10 mice per group) were orally given 1 g/kg of the test substance once a day over 2 weeks. On the last administration day, the mice were loaded with restraint stress after 1 hour of test substance administration. The restraint stress loading was performed by wrapping soft wire nets around the mouse bodies and allowing the mice to abstain from food and drink for 16 hours (17:00 to 9:00). Immediately after the termination of the loading, their blood testosterone concentrations were measured. A significant difference test used was the Student's t-test.

| Compound | inhibitory effect on reduction in blood testosterone concentration (isolated components) |
| --- | --- |
| tangshenoside I | the inhibitory effect was also observed |
| CC1OC(OC2C(OC(=O)[C@]34CCC(C)(C)C[C@@]3(C)C3=CCC5[C@@]6(C)CC[C@H](OC7OC(C(=O)O)C(O)C(O)C7O)C(C)(C)C6CC[C@@]5(C)[C@]3(C)C[C@H]4O)OCC(O)C2O)C(O)C(O)C1OC1OCC(O)C(OC2OCC(O)C(O)C2O)C1O (some centres unmarked) [lancemaside-A] | the inhibitory effect was also observed |
